This note sets out measurements from patent publication US20100022613A1, “Compounds Having CRTH2 Antagonist Activity” (Oxagen Limited, priority 2008, published 2010).

The target in assay [1] is T1, CRTH2 receptor (Homo sapiens, UniProt Q9Y5Y4).
T1 construct: expressed in transfected cells; host or cells: Chinese Hamster Ovary (CHO) cells, membranes
T1 sequence (Q9Y5Y4 1-395): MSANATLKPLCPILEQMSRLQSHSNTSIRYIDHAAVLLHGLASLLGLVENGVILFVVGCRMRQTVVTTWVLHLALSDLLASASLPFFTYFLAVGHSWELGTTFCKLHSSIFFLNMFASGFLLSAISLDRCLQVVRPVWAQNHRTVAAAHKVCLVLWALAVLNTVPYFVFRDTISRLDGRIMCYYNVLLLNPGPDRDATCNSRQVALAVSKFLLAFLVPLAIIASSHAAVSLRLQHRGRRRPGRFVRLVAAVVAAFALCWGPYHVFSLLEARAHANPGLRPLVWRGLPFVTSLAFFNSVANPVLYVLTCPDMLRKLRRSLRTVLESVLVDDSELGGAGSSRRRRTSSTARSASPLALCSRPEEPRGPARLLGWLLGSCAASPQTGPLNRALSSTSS
Description: Radioligand binding assay ([3H]PGD2) on CHO/CRTH2 cell membranes. The conditions noted are these: [3H]PGD2 binding. Here is the method: Chinese Hamster Ovary cells were transfected with CRTH2 or DP receptors (CHO/CRTH2 and CHO/DP) and were maintained in culture in a humidified atmosphere at 37° C. (5% CO2) in Minimum Essential Medium (MEM) supplemented with 10% foetal bovine serum, 2 mM glutamine, and 1 mg ml^−1 active G418. The cells were passaged every 2-3 days. For radioligand binding assay, cells were prepared in triple-layer flasks or in 175 cm^2 square flasks (for membrane preparation).
Membranes were prepared either from CHO/CRTH2 and CHO/DP cells, or from platelets (as a source of TP receptors). CHO cells grown to confluency were washed with PBS and detached using a Versene solution (15 ml per flask). When the cells were grown in 175 cm^2 square flask, they were collected by scrapping in PBS. The cell suspensions were centrifuged (1,700 rpm, 10 min, 4° C.) and resuspended in 15 ml of buffer (1× HBSS, supplemented with 10 mM HEPES, pH 7.3). Cell suspensions were then homogenised using an Ultra Turrax at setting 4-6 for 20 s. The homogenate was centrifuged at 1,700 rpm for 10 min and the supernatant was collected and centrifuged at 20,000 rpm for 1 h at 4° C. The resulting pellet was resuspended in buffer and stored at −80° C. in aliquots of 200-500 μl. The protein concentration was determined by the method of Bradford (1976), using bovine serum albumin as standard. The platelets were washed by centrifugation at 600×g for 10 min and resuspended in ice-cold assay buffer (10 mM Tris-HCl, pH 7.4, 5 mM Glucose, 120 mM NaCl, 10 μM indomethacin) and directly centrifuged at 20,000 rpm for 30 min at 4° C. The resulting pellet was treated as described above.
[^3H]PGD2 (160 Ci/mmol) binding experiments were performed on membranes prepared as described above. Assays were performed in a final volume of 100 μl of buffer (1× HBSS/HEPES 10 mM, pH 7.3). Cell membranes (15 μg) were preincubated at room temperature with varying concentration of competing ligand for 15 min. [^3H]PGD2 was then added and the incubation continued for a further one hour at room temperature. The reaction was terminated by the addition of 200 μl ice-cold assay buffer to each well, followed by rapid filtration through Whatman GF/B glass fibre filters using a Unifilter Cell harvester (PerkinElmer Life Sciences) and six washes of 300 μl of ice-cold buffer. The Unifilter plates were dried at room temperature for at least 1 h and the radioactivity retained on the filters was determined on a Beta Trilux counter (PerkinElmer Life Sciences), following addition of 40 μl of Optiphase Hi-Safe 3 (Wallac) liquid scintillation. Non specific binding was defined in the presence of 10 μM unlabelled PGD2. Assays were performed in duplicate.

The test system of assay [2] is PGD2-induced eosinophil shape change. The assay is described as follows: Human whole blood eosinophil shape change assay (PGD2-induced). The class given is cell-based. The note with it: 10 nM PGD2, read-out: IC50 for the effect on 10 nM PGD2-induced eosinophil shape change in whole blood. Here is the method: Compounds 1-6 were assayed for their effect on PGD2 induced eosinophil shape change.
Compounds (1 μl, 200× final concentration) were added directly to 200 μl whole blood, mixed well and incubated for 15 min, 37° C., 5% CO2. After this time, cell shape was fixed by addition of 300 μl Cytofix™ buffer (BD Biosciences), 15 min on ice. 10 ml RBC lysis buffer was added to the fixed cells, incubated 5 min, at room temperature and centrifuged, 300×g for 5 min. Supernatant (containing lysed red cells) was removed and the lysis step was repeated. Leukocytes were resuspended in 250 μl RPMI/10% FCS and shape change analysed by FACS. Eosinophils were gated out based on their autofluorescence and 2000 eosinophil events were counted per sample. Data were analysed in triplicate.

pIC50, pKi: −log10 of the molar value.

In general, pKi refers to the Ki on a negative log10 scale, so that one unit is a factor of ten. For orientation: pIC50 means the negative decadic logarithm of the IC50, by convention in mol/L. As to `Cc1c(Cc2ccc(S(=O)(=O)Cc3ccccc3)cc2)c2cc(F)ccc2n1CC(=O)O` [Compound 1, 2-(3-(4-(Benzylsulfonyl)benzyl)-5-fluoro-2-methyl-1H-indol-1-yl)acetic acid], the pKi in assay [1] was 9.00. The negative logarithm of the IC50 (pIC50) in assay [2] is 9.00.
`Cc1c(Cc2ccccc2S(=O)(=O)Cc2ccccc2)c2cc(F)ccc2n1CC(=O)O` [Compound 5, 2-(3-(2-(Benzylsulfonyl)benzyl)-5-fluoro-2-methyl-1H-indol-1-yl)acetic acid] gave a pKi in assay [1] of 8.52. In assay [2], the pIC50 was 7.92.
`Cc1c(Cc2cccc(S(=O)(=O)Cc3ccc(F)cc3)c2)c2cc(F)ccc2n1CC(=O)O` [Compound 4, 2-(5-Fluoro-3-(3-(4-fluorobenzylsulfonyl)benzyl)-2-methyl-1H-indol-1-yl)acetic acid]: in assay [1], the pKi was 9.00.
For the compound `Cc1c(Cc2cccc(S(=O)(=O)Cc3ccccc3)c2)c2cc(F)ccc2n1CC(=O)O` [Compound 3, 2-(3-(3-(Benzylsulfonyl)benzyl)-5-fluoro-2-methyl-1H-indol-1-yl)acetic acid], the pKi in assay [1] is 8.52. For the same compound, the pIC50 in assay [2] is 7.11.
The like results for `Cc1c(Cc2ccc(S(=O)(=O)Cc3ccc(F)cc3)cc2)c2cc(F)ccc2n1CC(=O)O` [Compound 6, 2-(3-(4-(4-Fluorobenzylsulfonyl)benzyl)-5-fluoro-2-methyl-1H-indol-1-yl)acetic acid] were, in that order, 8.52 and 8.52.
For the compound `Cc1c(Cc2ccc(S(=O)(=O)Cc3ccc(Cl)cc3)cc2)c2cc(F)ccc2n1CC(=O)O` [Compound 2, 2-(3-(4-(4-Chlorobenzylsulfonyl)benzyl)-5-fluoro-2-methyl-1H-indol-1-yl)acetic acid], in assay [1], the negative logarithm of the Ki (pKi) was 8.30.
